Measurements taken from patent US8841312B2, “Fused pyridine, pyrimidine and triazine compounds as cell cycle inhibitors” (Amgen Inc., priority 2007, dated 2014).

Key:
Cdk4/CyclinD1 = Cdk4/CyclinD1 (Homo sapiens (Human), UniProt P11802); test: Cdk4 kinase inhibition assay with recombinant Cdk4/CyclinD1, Rb substrate, [33P]-ATP filter plate; assay type: biochemical; conditions: 25 μM ATP, read-out: Cdk 4 IC50
Summary of the method: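 Recombinant Cdk4/CyclinD1 or Cdk6/CyclinD3 phosphorylated Rb protein with [33P]-ATP for 1 h at room temperature. Protein was TCA-precipitated on filter plates and bound radioactivity counted. IC50 by nonlinear regression.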

Cdk6/CyclinD3 = Cdk6/CyclinD3 (Homo sapiens (Human), UniProt Q00534); test: Cdk6 kinase inhibition assay with recombinant Cdk6/CyclinD3, Rb substrate, [33P]-ATP filter plate; assay type: biochemical; conditions: 25 μM ATP, read-out: Cdk 6 IC50
Chain of Cdk6/CyclinD3 (Q00534 whole entry): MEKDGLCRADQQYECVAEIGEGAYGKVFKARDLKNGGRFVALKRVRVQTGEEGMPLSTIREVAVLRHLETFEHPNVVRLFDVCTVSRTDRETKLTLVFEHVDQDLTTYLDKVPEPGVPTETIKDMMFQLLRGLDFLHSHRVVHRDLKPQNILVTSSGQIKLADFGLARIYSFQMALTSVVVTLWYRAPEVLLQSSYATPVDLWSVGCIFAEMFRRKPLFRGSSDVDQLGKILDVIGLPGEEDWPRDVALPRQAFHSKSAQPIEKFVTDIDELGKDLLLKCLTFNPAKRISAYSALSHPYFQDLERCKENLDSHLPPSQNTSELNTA
Chain of Cdk6/CyclinD3 (P30281 whole entry partner): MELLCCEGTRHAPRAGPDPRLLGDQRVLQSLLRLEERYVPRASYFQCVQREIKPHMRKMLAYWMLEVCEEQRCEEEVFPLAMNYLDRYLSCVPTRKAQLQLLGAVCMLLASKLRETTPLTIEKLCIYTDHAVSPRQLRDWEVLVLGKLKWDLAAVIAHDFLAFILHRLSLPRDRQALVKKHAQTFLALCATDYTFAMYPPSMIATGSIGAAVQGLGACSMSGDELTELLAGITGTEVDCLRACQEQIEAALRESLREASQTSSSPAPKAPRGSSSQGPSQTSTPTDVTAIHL
Procedure: The Cdk4 and Cdk6 inhibitory activity of the compounds is measured with a kinase inhibition assay using recombinant Cdk4/CyclinD1 or Cdk6/CyclinD3 protein complexes. The protein substrate used in the assay is the retinoblastoma protein (Rb). The kinase reactions are carried out in a 96-well filter plate (MSDV N6B50, Millipore). […] The mixture is incubated at room temperature for 1 hour and the proteins precipitated with an equal volume of 20% TCA. The plates are washed with 10% TCA according to the manufacturer's instruction and dried at room temperature. The amount of the phosphorylated Rb is determined with a TopCount (PerkinElmer). The IC50 of a compound is determined by nonlinear regression curve fitting using software program Prism 5 (GraphPad Software).

Chain of Cdk4/CyclinD1 (P11802 whole entry): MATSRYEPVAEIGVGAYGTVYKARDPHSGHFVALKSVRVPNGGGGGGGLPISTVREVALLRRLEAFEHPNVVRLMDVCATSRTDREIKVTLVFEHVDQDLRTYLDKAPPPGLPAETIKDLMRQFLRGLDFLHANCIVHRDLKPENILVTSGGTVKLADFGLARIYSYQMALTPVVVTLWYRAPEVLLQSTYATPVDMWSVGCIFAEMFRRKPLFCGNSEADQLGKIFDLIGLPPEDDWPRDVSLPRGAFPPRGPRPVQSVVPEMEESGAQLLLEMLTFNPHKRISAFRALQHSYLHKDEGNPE
Chain of Cdk4/CyclinD1 (P24385 whole entry partner): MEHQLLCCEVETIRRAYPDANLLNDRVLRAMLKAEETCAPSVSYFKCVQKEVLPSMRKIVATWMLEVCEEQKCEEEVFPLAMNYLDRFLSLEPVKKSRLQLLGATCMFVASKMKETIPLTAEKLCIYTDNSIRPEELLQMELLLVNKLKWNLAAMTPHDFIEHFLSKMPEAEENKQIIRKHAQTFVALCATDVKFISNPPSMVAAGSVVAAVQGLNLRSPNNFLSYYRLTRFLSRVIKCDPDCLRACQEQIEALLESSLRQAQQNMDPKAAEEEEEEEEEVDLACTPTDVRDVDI

| SMILES | IC50 (Cdk4/CyclinD1) [nM] | IC50 (Cdk6/CyclinD3) [nM] |
| --- | --- | --- |
| c1cc2c3cnc(Nc4ccc(N5CCC(N6CCOCC6)CC5)nn4)nc3n(C3CCCC3)c2cn1 [Example 447] | 2.8 | 26 |
| CCCNC1CCN(c2ccc(Nc3ncc4c5ccncc5n(C5CCCC5)c4n3)nc2)CC1 [Example 466] | 4.7 | 14 |
| C[C@H](O)CNc1ccc(Nc2ncc3c4ccncc4n(C4CCCC4)c3n2)nn1 [Example 294] | 5.9 | 26 |
| O[C@@H]1CCN(C2CCN(c3ccc(Nc4ncc5c6ccncc6n(C6CCCC6)c5n4)nn3)CC2)C1 [Example 449] | 12 | 36 |
| OCCNc1ccc(Nc2ncc3c4ccncc4n(C4CCCC4)c3n2)nn1 [Example 292] | 4.9 | 16.1 |
| C[C@H](O)CNC1CCN(c2ccc(Nc3ncc4c5ccncc5n(C5CCCC5)c4n3)nc2)CC1 [Example 459] | – | 14 |
| OC1CCN(C2CCN(c3ccc(Nc4ncc5c6ccncc6n(C6CCCC6)c5n4)nc3)CC2)CC1 [Example 463] | 15 | 18 |
| CC1(C)CCC(n2c3cnccc3c3cnc(Nc4ccc(N5CCNCC5)cn4)nc32)CC1 [Example 204, 9-(4,4-dimethylcyclohexyl)-N-(5-(1-piperazinyl)-2-pyridinyl)-9H-pyrido[4′,3′:4,5]pyrrolo[2,3-d]pyrimidin-2-amine] | 3.5 | 1.1 |
| OCC1(n2c3cnccc3c3cnc(Nc4ccc(N5CCNCC5)cn4)nc32)CCCC1 [Example 44, {1-[2-(5-piperazin-1-yl-pyridin-2-ylamino)-pyrido[4′,3′:4,5]pyrrolo[2,3-d]pyrimidin-9-yl]-cyclopentyl}-methanol] | 11 | 25 |
| CC(C)(C)n1c2cnccc2c2cnc(Nc3ccc(N4CCNCC4)cn3)nc21 [Example 27, (9-tert-Butyl-9H-pyrido[4′,3′:4,5]pyrrolo[2,3-d]pyrimidin-2-yl)-(5-piperazin-1-yl-pyridin-2-yl)-amine] | 5.5 | 7 |
| CNC1CCN(c2ccc(Nc3ncc4c5ccnc(F)c5n(C5CCCC5)c4n3)nc2)CC1 [Example 310] | 5 | 13 |
| C[C@@H](CO)NC1CCN(c2ccc(Nc3ncc4c5ccncc5n(C5CCCC5)c4n3)nn2)CC1 [Example 442] | 1.5 | 13 |
| c1cc2c3cnc(Nc4ccc(NCC5CNC5)nn4)nc3n(C3CCCC3)c2cn1 [Example 97] | 430 | 396 |
| CC(C)NC1CCN(c2ccc(Nc3ncc4c5ccncc5n(C5CCCC5)c4n3)nc2)CC1 [Example 469] | 5.7 | 20 |
| N#Cc1ccc2c3cnc(Nc4ccc(N5CCNCC5)cn4)nc3n(C3CCCC3)c2c1 [Example 41, 9-Cyclopentyl-2-(5-piperazin-1-yl-pyridin-2-ylamino)-9H-pyrimido[4,5-b]indole-7-carbonitrile] | 2.7 | 7.2 |
| NC1[C@H]2CN(c3ccc(Nc4ncc5c6ccncc6n(C6CCCC6)c5n4)nn3)C[C@@H]12 (stereo partly drawn) [Example 272, N-(6-((1R,5S)-6-amino-3-azabicyclo[310]hex-3-yl)-3-pyridazinyl)-9-cyclopentyl-9H-pyrido[4′,3′:4,5]pyrrolo[2,3-d]pyrimidin-2-amine] | 27 | 101 |
| c1ccc2c(c1)c1cnc(Nc3ccc(N4CCNCC4)cn3)nc1n2C1CCCCC1 [Example 22, (9-Cyclohexyl-9H-pyrimido[4,5-b]indol-2-yl)-(5-piperazin-1-yl-pyridin-2-yl)-amine] | 1.3 | 2.5 |
| CN(C)C1CCN(c2ccc(Nc3ncc4c5ccccc5n(C5CCCC5)c4n3)nc2)CC1 [Example 309] | 11 | 12 |
| c1cc2c3cnc(Nc4ccc(N5CCC(NC6CCC6)CC5)cn4)nc3n(C3CCCC3)c2cn1 [Example 468] | 4.2 | 19 |
| O[C@@H]1CCN(c2ccc(Nc3ncc4c5ccccc5n(C5CCCC5)c4n3)nc2)C1 [Example 304] | 46 | 27 |
| c1cnc2c(c1)c1cnc(Nc3ccc(N4CCNCC4)cc3)nc1n2C1CCCC1 [Example 36, (9-Cyclopentyl-9H-pyrido[3′,2′:4,5]pyrrolo[2,3-d]pyrimidin-2-yl)-(4-piperazin-1-yl-phenyl)-amine] | 0.83 | 4.4 |
| O=c1[nH]ccc2c3cnc(Nc4ccc(N5CCNCC5)cn4)nc3n(C3CCCC3)c12 [Example 53, 9-Cyclopentyl-2-((5-(1-piperazinyl)-2-pyridinyl)amino)-7,9-dihydro-8H-pyrido[4′,3′:4,5]-pyrrolo[2,3-d]pyrimidin-8-one] | 4.7 | 11 |

| SMILES | IC50 (Cdk4/CyclinD1) [nM] | IC50 (Cdk6/CyclinD3) [nM] |
| --- | --- | --- |
| Fc1nccc2c3cnc(Nc4ccc(N5CCNCC5)cn4)nc3n(C3CCCC3)c12 [Example 57, 9-Cyclopentyl-8-fluoro-N-(5-(1-piperazinyl)-2-pyridinyl)-9H-pyrido[4′,3′:4,5]pyrrolo[2,3-d]pyrimidin-2-amine] | 2 | 17 |
| O[C@@H]1CCN(c2ccc(Nc3ncc4c5ccnc(F)c5n(C5CCCC5)c4n3)nc2)C1 [Example 186A, (3R)-1-(6-((9-cyclopentyl-8-fluoro-9H-pyrido[4′,3′:4,5]pyrrolo[2,3-d]pyrimidin-2-yl)amino)-3-pyridinyl)-3-pyrrolidinol] | – | 2 |
| CN(C)C1CCN(S(=O)(=O)c2ccc(Nc3ncc4c5ccncc5n(C5CCCC5)c4n3)nc2)CC1 [Example 229, 9-cyclopentyl-N-(5-((4-(dimethylamino)-1-piperidinyl)sulfonyl)-2-pyridinyl)-9H-pyrido[4′,3′:4,5]pyrrolo[2,3-d]pyrimidin-2-amine] | 21.2 | 20.5 |
| Cn1c(=O)ccc2c3cnc(Nc4ccc(N5CC[C@@H](O)C5)cn4)nc3n(C3CCCC3)c21 [Example 185, 9-Cyclopentyl-2-((5-((3R)-3-hydroxy-1-pyrrolidinyl)-2-pyridinyl)amino)-8-methyl-8,9-dihydro-7H-pyrido[3′,2′:4,5]pyrrolo[2,3-d]pyrimidin-7-one] | 145 | 149 |
| CN(C)C1CCN(c2ccc(Nc3ncc4c5ccccc5n(C5CCCC5)c4n3)nn2)CC1 [Example 300] | 22 | 48 |
| C[C@@H](O)CNC1CCN(c2ccc(Nc3ncc4c5ccncc5n(C5CCCC5)c4n3)nn2)CC1 [Example 441] | 1.7 | 3.8 |
| c1cc(Nc2ncc3c4sncc4n(C4CCCC4)c3n2)ncc1N1CCNCC1 [Example 168, 4-Cyclopentyl-N-(5-(1-piperazinyl)-2-pyridinyl)-4H-isothiazolo[5′,4′:4,5]pyrrolo[2,3-d]pyrimidin-6-amine] | 10000 | 10000 |
| C[C@@H](O)Cn1c2cnccc2c2cnc(Nc3ccc(N4CCNCC4)cn3)nc21 [Example 356] | 360 | 370 |
| O=S1(=O)CCC(Nc2ccc(Nc3ncc4c5ccncc5n(C5CCCC5)c4n3)nn2)C1 (stereo not shown) [Example 93] | 3.1 | 15.9 |
| CC1CN(c2ccc(Nc3ncc4c5ccnc(F)c5n(C5CCCC5)c4n3)nc2)CC(C)N1 (stereo not shown) [Example 189, 9-Cyclopentyl-N-(5-(3,5-dimethyl-1-piperazinyl)-2-pyridinyl)-8-fluoro-9H-pyrido[4′,3′:4,5]pyrrolo[2,3-d]pyrimidin-2-amine] | 20 | 22 |
| c1cc2c3cnc(Nc4ccc(NC5CCNCC5)nn4)nc3n(C3CCCC3)c2cn1 [Example 96] | 16.2 | 12.4 |
| OC1CCN(C2CCN(c3ccc(Nc4ncc5c6ccncc6n(C6CCCC6)c5n4)nn3)CC2)CC1 [Example 455] | 7 | 9 |
| O=S1(=O)CCN(c2ccc(Nc3ncc4c5ccncc5n(C5CCCC5)c4n3)nn2)CC1 [Example 94] | 4.9 | 9.2 |
| C[C@@H](O)CNC1CCN(c2ccc(Nc3ncc4c5ccncc5n(C5CCCC5)c4n3)nc2)CC1 [Example 460] | – | 12 |
| c1cc2c3cnc(Nc4ccc(N5CCNCC5)cc4)nc3n(C3CC4CCC3C4)c2cn1 (stereo not shown) [Example 40, (9-Bicyclo[2.2.1]hept-2-yl-9H-pyrido[4′,3′:4,5]pyrrolo[2,3-d]pyrimidin-2-yl)-(4-piperazin-1-yl-phenyl)-amine] | – | 2.6 |
| O[C@H]1CCN(c2ccc(Nc3ncc4c5ccnc(F)c5n(C5CCCC5)c4n3)nc2)C1 [Example 186B, (3S)-1-(6-((9-cyclopentyl-8-fluoro-9H-pyrido[4′,3′:4,5]pyrrolo[2,3-d]pyrimidin-2-yl)amino)-3-pyridinyl)-3-pyrrolidinol] | – | 4.8 |
| Fc1cncc2c1c1cnc(Nc3ccc(N4CCNCC4)cn3)nc1n2C1CCCC1 [Example 58, 9-Cyclopentyl-5-fluoro-N-(5-(1-piperazinyl)-2-pyridinyl)-9H-pyrido[4′,3′:4,5]pyrrolo[2,3-d]pyrimidin-2-amine] | 5.2 | – |
| C[C@H]1CN(c2ccc(Nc3ncc4c5ccncc5n([C@@H](C)CO)c4n3)nn2)CCN1 [Example 377] | 73 | – |
| O=S1(=O)CCC(O)(c2ccc(Nc3ncc4c5ccncc5n(C5CCCC5)c4n3)nc2)CC1 [Example 263, 4-(6-((9-cyclopentyl-9H-pyrido[4′,3′:4,5]pyrrolo[2,3-d]pyrimidin-2-yl)amino)-3-pyridinyl)tetrahydro-2H-thiopyran-4-ol 1,1-dioxide] | 14 | – |
| C[C@@H](CO)n1c2cnccc2c2cnc(Nc3ccc(N4CCC(N(C)C)CC4)cn3)nc21 [Example 370] | 161 | – |
| O[C@@H]1CCN(c2ccc(Nc3ncc4c5ccncc5n([C@@H]5CCOC5)c4n3)nn2)C1 [Example 392] | 219 | – |
